Assay results published in paper PMC9873481 (Nature, 2022).

T1: hBest2 (Homo sapiens, UniProt Q8NFU1)
T1 sequence (Q8NFU1 1-509): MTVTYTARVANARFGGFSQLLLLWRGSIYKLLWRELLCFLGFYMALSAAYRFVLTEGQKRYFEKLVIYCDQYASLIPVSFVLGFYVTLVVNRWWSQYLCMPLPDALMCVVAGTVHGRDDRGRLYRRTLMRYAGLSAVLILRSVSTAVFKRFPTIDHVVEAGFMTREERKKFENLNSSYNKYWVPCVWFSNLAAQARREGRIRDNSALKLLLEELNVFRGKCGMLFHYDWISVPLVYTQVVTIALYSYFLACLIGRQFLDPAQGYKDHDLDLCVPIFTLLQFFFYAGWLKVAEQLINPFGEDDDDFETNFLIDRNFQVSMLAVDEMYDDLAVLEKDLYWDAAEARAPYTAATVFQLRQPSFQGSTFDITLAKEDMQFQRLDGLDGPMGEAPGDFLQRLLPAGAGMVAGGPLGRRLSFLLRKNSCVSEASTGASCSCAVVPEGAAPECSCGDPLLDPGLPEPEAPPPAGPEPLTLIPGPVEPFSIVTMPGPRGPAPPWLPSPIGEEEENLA


Assays:
hBest2 = target: T1, hBest2; test: whole-cell patch clamp, HEK293; format: cell-based
cryo-EM structure = target: the molecule itself; test: cryo-EM structure

| Molecule | EC50 (hBest2) [mM] | stoichiometry N (cryo-EM structure) |
| --- | --- | --- |
| N[C@@H](CCC(=O)O)C(=O)O [glutamate] | 46 | – |
| bovine bestrophin-2, purified for cryo-EM (GFP-His tag removed) (natural protein) MTVTYTARVAKARFGGFSKLLLLWRGSIYKLLWRELLCFLGLFMALSAAYRFVLTEEQKRYFEKLVLYCDRYASLIPVSFVLGFYVTLVVHRWWNQYLSMPLTDALMCVVVGTVHGHDERGRLYRRTLMRYAGLSGVLILRSVSTAVFKRFPTIDHVVEAGFMTREERKKFENLNSSYNKYWVPCVWFCNLAAQARREGRIRDNGAFKLLLEELNVFRSKCGMLFHYDWISVPLVYTQVVTIAVYSYFLACLIGRQFLDPAQGYKDHDLDLCVPIFTLLQFFFYAGWLKVAEQLINPFGEDDDDFETNFLIDRCFQVSMLAVDEMYDDLAMLEKDLYWDAAEARAPYTAATAFLMQQPSFQGSTFDITLAKEDMQFQRQDGLEAPLNEAHGDFLQRLLPVGTGMGTGGLL | – | 5 |
